Columns and labels:
[1] = human gut metagenome, 24 h, 2 µM
[2] = human gut metagenome, 24 h, 2 µM; remark: listed apart in the source
[3] = (§1) The drug is tested on Z-007 corresponding to rat gut metagenome with ENA study accession number: PRJEB37062 and ENA sample accession number: ERS12561807 for biotransformation under anaerobic condition. The drug concentrations were measured over 9 timepoints collected between 0 and 24 hours of incubation by liquid-chromatography-coupled mass spectrometry (LC–MS); conditions: 2 µM
[4] = human gut metagenome, 24 h, 2 µM; remark: listed apart in the source
[5] = human gut metagenome, 24 h, 2 µM; remark: listed apart in the source
[6] = as §1, with “on Z-017” for “on Z-007”, “to mouse” for “to rat”, “number: ERS12561816” for “number: ERS12561807”; conditions: 2 µM
[7] = as §1, with “on Z-024” for “on Z-007”, “to pig” for “to rat”, “number: ERS12561823” for “number: ERS12561807”; conditions: 2 µM
[8] = as §1, with “on WLS-069” for “on Z-007”, “to human” for “to rat”, “number: ERS12561748” for “number: ERS12561807”; conditions: 2 µM
[9] = human gut metagenome, 24 h, 2 µM; remark: listed apart in the source
[10] = human gut metagenome, 24 h, 2 µM; remark: listed apart in the source
[11] = as §1, with “Z-019” for “Z-007”, “ERS12561818” for “ERS12561807”; conditions: 2 µM
[12] = human gut metagenome, 24 h, 2 µM; remark: listed apart in the source
[13] = human gut metagenome, 24 h, 2 µM; remark: listed apart in the source
[14] = as §1, with “on WLS-170” for “on Z-007”, “to human” for “to rat”, “number: ERS12561762” for “number: ERS12561807”; conditions: 2 µM
[15] = as §1, with “on Z-016” for “on Z-007”, “to mouse” for “to rat”, “number: ERS12561815” for “number: ERS12561807”; conditions: 2 µM
[16] = human gut metagenome, 24 h, 2 µM; remark: listed apart in the source
[17] = as §1, with “on WLS-052” for “on Z-007”, “to human” for “to rat”, “number: ERS12561747” for “number: ERS12561807”; conditions: 2 µM
[18] = human gut metagenome, 24 h, 2 µM; remark: listed apart in the source
[19] = as §1, with “on WLS-073” for “on Z-007”, “to human” for “to rat”, “number: ERS12561749” for “number: ERS12561807”; conditions: 2 µM
[20] = human gut metagenome, 24 h, 2 µM; remark: listed apart in the source
Further: call rule not given here.

CCOC(=O)C1=C[C@]2(CC)CCCN3CCc4c(n1c1ccccc41)[C@@H]32 [VINPOCETINE]
Bacterial Biotransformation [1]: Compound NOT metabolized | Bacterial Biotransformation [2]: Compound metabolized | Bacterial Biotransformation [3]: Compound NOT metabolized | Bacterial Biotransformation [4]: Compound metabolized | Bacterial Biotransformation [5]: Compound NOT metabolized | Bacterial Biotransformation [6]: Compound NOT metabolized | Bacterial Biotransformation [7]: Compound metabolized | Bacterial Biotransformation [8]: Compound metabolized | Bacterial Biotransformation [9]: Compound metabolized | Bacterial Biotransformation [10]: Compound metabolized | Bacterial Biotransformation [11]: Compound NOT metabolized | Bacterial Biotransformation [12]: Compound NOT metabolized | Bacterial Biotransformation [13]: Compound NOT metabolized | Bacterial Biotransformation [14]: Compound metabolized | Bacterial Biotransformation [15]: Compound metabolized | Bacterial Biotransformation [16]: Compound metabolized | Bacterial Biotransformation [17]: Compound metabolized | Bacterial Biotransformation [18]: Compound metabolized | Bacterial Biotransformation [19]: Compound metabolized | Bacterial Biotransformation [20]: Compound NOT metabolized

C[C@@H](c1ncncc1F)[C@](O)(Cn1cncn1)c1ccc(F)cc1F [VORICONAZOLE]
Bacterial Biotransformation [1]: Compound metabolized | Bacterial Biotransformation [2]: Compound metabolized | Bacterial Biotransformation [3]: Compound NOT metabolized | Bacterial Biotransformation [4]: Compound metabolized | Bacterial Biotransformation [5]: Compound metabolized | Bacterial Biotransformation [6]: Compound NOT metabolized | Bacterial Biotransformation [7]: Compound metabolized | Bacterial Biotransformation [8]: Compound metabolized | Bacterial Biotransformation [9]: Compound metabolized | Bacterial Biotransformation [10]: Compound metabolized | Bacterial Biotransformation [11]: Compound NOT metabolized | Bacterial Biotransformation [12]: Compound metabolized | Bacterial Biotransformation [13]: Compound metabolized | Bacterial Biotransformation [14]: Compound metabolized | Bacterial Biotransformation [15]: Compound metabolized | Bacterial Biotransformation [16]: Compound metabolized | Bacterial Biotransformation [17]: Compound metabolized | Bacterial Biotransformation [18]: Compound metabolized | Bacterial Biotransformation [19]: Compound metabolized | Bacterial Biotransformation [20]: Compound metabolized

CCN(C(C)=O)c1cccc(-c2ccnc3c(C#N)cnn23)c1 [ZALEPLON]
Bacterial Biotransformation [1]: Compound NOT metabolized | Bacterial Biotransformation [2]: Compound metabolized | Bacterial Biotransformation [3]: Compound NOT metabolized | Bacterial Biotransformation [4]: Compound metabolized | Bacterial Biotransformation [5]: Compound NOT metabolized | Bacterial Biotransformation [6]: Compound NOT metabolized | Bacterial Biotransformation [7]: Compound NOT metabolized | Bacterial Biotransformation [8]: Compound metabolized | Bacterial Biotransformation [9]: Compound metabolized | Bacterial Biotransformation [10]: Compound metabolized | Bacterial Biotransformation [11]: Compound NOT metabolized | Bacterial Biotransformation [12]: Compound metabolized | Bacterial Biotransformation [13]: Compound NOT metabolized | Bacterial Biotransformation [14]: Compound metabolized | Bacterial Biotransformation [15]: Compound metabolized | Bacterial Biotransformation [16]: Compound metabolized | Bacterial Biotransformation [17]: Compound metabolized | Bacterial Biotransformation [18]: Compound metabolized | Bacterial Biotransformation [19]: Compound metabolized | Bacterial Biotransformation [20]: Compound metabolized

From ChEMBL document CHEMBL5724914, “Linking interpersonal differences in gut microbiota composition and drug biotransformation activity” (2024)
